Data: EP3227262B1, “SULFIDE ALKYL AND PYRIDYL REVERSE SULFONAMIDE COMPOUNDS FOR HBV TREATMENT” (Novira Therapeutics Inc., priority 2014, dated 2016)

Columns and labels:
HBV [1] = assay: Inhibition of HBV replication dot-blot assay in HBV-producing hepatoma cell line; assay type: cell-based; details: Hepatitis B virus, 144 h; activity in Dot-Blot assay; HepG2-2.2.15 cells; reduction in HBV DNA levels, six days
Method in brief: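 HepG2-2.2.15 confluent monolayers were exposed to a compound dilution series for six days, with medium and compound renewed at day 3. HBV DNA in supernatant/lysate was quantified by dot-blot hybridization, and EC50 was derived from dose-response reduction in HBV DNA.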

HBV [2] = assay: HBV replication inhibition assay (encapsidated HBV DNA in supernatant, bDNA QuantiGene); assay type: cell-based; details: Hepatitis B virus, 144 h, HepG2.2.15 cells, supernatant at day 6, read-out: Extra HBV DNA

For `CC(O)CCSc1cc(C(=O)Nc2cc(F)c(F)c(F)c2)ccc1F` (racemic) [Compound 18, (±)-4-Fluoro-3-((3-hydroxybutyl)thio)-N-(3,4,5-trifluorophenyl)benzamide], the EC50 (HBV [1]) was under 10000 nM and the EC50 (HBV [2]) was 570 nM.
In the case of `O=C(Nc1ccc(F)c(Cl)c1)c1cncc(NS(=O)(=O)C2CC2)c1` [Compound 125, N-(3-Chloro-4-fluorophenyl)-5-(cyclopropanesulfonamido)nicotinamide], the EC50 (HBV [1]) is reported as under 10000 nM and the EC50 (HBV [2]) is reported as 2100 nM.
Compound `CS(=O)(=O)NC(=O)[C@H]1CC[C@@H](Sc2cc(C(=O)Nc3cc(F)c(F)c(F)c3)ccc2F)CC1` [Compound 100, 4-Fluoro-3-(((1S,4S)-4-((methylsulfonyl)carbamoyl)cyclohexyl)thio)-N-(3,4,5-trifluorophenyl)benzamide] has an EC50 (HBV [1]) of under 10000 nM and an EC50 (HBV [2]) of 1700 nM.
With `O=C(Nc1ccc(F)c(Cl)c1)c1ccnc(NS(=O)(=O)C2CC2)c1` [Compound 124, N-(3-Chloro-4-fluorophenyl)-2-(cyclopropanesulfonamido)isonicotinamide] the EC50 (HBV [1]) was under 10000 nM and the EC50 (HBV [2]) was 100 nM.
`O=C(Nc1ccc(F)c(Cl)c1)c1ccnc(NS(=O)(=O)C2CCC(O)C2)c1` (racemic) [Compound 186, (±)-N-(3-Chloro-4-fluorophenyl)-2-(3-hydroxycyclopentanesulfonamido)isonicotinamide] showed an EC50 (HBV [1]) of under 10000 nM and an EC50 (HBV [2]) of 2700 nM.
For `O=C(Nc1ccc(F)c(Cl)c1)c1cccc(SC2CCCC2)c1` [Compound 37, N-(3-Chloro-4-fluorophenyl)-3-(cyclopentylthio)benzamide], the EC50 (HBV [1]) was under 10000 nM and the EC50 (HBV [2]) was 1070 nM.
`O=C(Nc1cc(F)c(F)c(F)c1)c1ccc(F)c(SC2CCC(C(=O)O)CC2)c1` (mixture of isomers) [Compound 62, (cis/trans)-4-((2-Fluoro-5-((3,4,5-trifluorophenyl)carbamoyl)phenyl)thio)cyclohexanecarboxylic acid] gave an EC50 (HBV [1]) of under 10000 nM and an EC50 (HBV [2]) of 710 nM.
`O=C(Nc1cc(F)c(F)c(F)c1)c1ccc(F)c(SC2CCOCC2)c1` [Compound 4, 4-Fluoro-3-((tetrahydro-2H-pyran-4-yl)thio)-N-(3,4,5-trifluorophenyl)benzamide] was tested, and the EC50 (HBV [1]) was under 10000 nM and the EC50 (HBV [2]) was 220 nM.
In the case of `O=C(Nc1ccc(F)c(F)c1)c1ccc(F)c(SC2CCC(C(=O)O)CC2)c1` (mixture of isomers) [Compound 63, (cis/trans)-4-((S-((3,4-Difluorophenyl)carbamoyl)-2-fluorophenyl)thio)cyclohexanecarboxylic acid], the EC50 (HBV [1]) is reported as under 10000 nM and the EC50 (HBV [2]) is reported as 1600 nM.
In the case of `CCc1ccc(CS(=O)(=O)Nc2cc(C(=O)Nc3ccc(F)c(Cl)c3)ccn2)cc1` [Compound 180, N-(3-Chloro-4-fluorophenyl)-2-((4-ethylphenyl)methylsulfonamido)isonicotinamide], the EC50 (HBV [1]) is reported as under 10000 nM and the EC50 (HBV [2]) is reported as 300 nM.
In the case of `O=C(Nc1cc(F)c(F)c(F)c1)c1ccc(F)c(SC2CCCCC2)c1` [Compound 2, 3-(Cyclohexylthio)-4-fluoro-N-(3,4,5-trifluorophenyl)benzamide], the EC50 (HBV [1]) is reported as under 10000 nM and the EC50 (HBV [2]) is reported as 138 nM.
`O=C(Nc1ccc(F)c(Cl)c1)c1cccc(NS(=O)(=O)C2CC2)n1` [Compound 123, N-(3-Chloro-4-fluorophenyl)-6-(cyclopropanesulfonamido)picolinamide] gave an EC50 (HBV [1]) of under 10000 nM and an EC50 (HBV [2]) of 3000 nM.
`CS(=O)(=O)NC(=O)C1C2CC(Sc3cc(C(=O)Nc4cc(F)c(F)c(F)c4)ccc3F)CC21` (mixture of isomers) [Compound 99, (cis/trans)-3-((2-Fluoro-5-((3,4,5-trifluorophenyl)carbamoyl)phenyl)thio)-N-(methylsulfonyl)bicyclo[3.1.0]hexane-6-carboxamide] was tested, and the EC50 (HBV [1]) was under 10000 nM and the EC50 (HBV [2]) was 4000 nM.
`O=C(Nc1cc(F)c(F)c(F)c1)c1ccc(F)c(SCC2(CCO)CC2)c1` [Compound 33, 4-Fluoro-3-(((1-(2-hydroxyethyl)cyclopropyl)methyl)thio)-N-(3,4,5-trifluorophenyl)benzamide] was tested, and the EC50 (HBV [1]) was under 10000 nM and the EC50 (HBV [2]) was 620 nM.
Work on `CCc1ccc(CS(=O)(=O)Nc2cc(C(=O)Nc3ccc(F)c(F)c3)ccn2)cc1` [Compound 181, N-(3,4-Difluorophenyl)-2-((4-ethylphenyl)methylsulfonamido)isonicotinamide] yielded an EC50 (HBV [1]) of under 10000 nM and an EC50 (HBV [2]) of 700 nM.
With `O=C(Nc1ccc(F)c(Cl)c1)c1ccc(F)c(SCC2(CCO)CC2)c1` [Compound 32, N-(3-Chloro-4-fluorophenyl)-4-fluoro-3-(((1-(2-hydroxyethyl)cyclopropyl)methyl)thio)benzamide] the EC50 (HBV [1]) was under 10000 nM and the EC50 (HBV [2]) was 410 nM.
Compound `O=C(Nc1cc(F)c(F)c(F)c1)c1ccc(F)c(SC2CC3C(C2)C3C(=O)O)c1` (mixture of isomers) [Compound 98, (cis/trans)-3-((2-fluoro-5-((3,4,5-trifluorophenyl)carbamoyl)phenyl)thio)bicyclo[3.1.0]hexane-6-carboxylic acid] has an EC50 (HBV [1]) of under 10000 nM and an EC50 (HBV [2]) of 1300 nM.
In the case of `O=C(Nc1ccc(F)c(Cl)c1)c1cccc(SC2CCCCC2)c1` [Compound 35, N-(3-Chloro-4-fluorophenyl)-3-(cyclohexylthio)benzamide], the EC50 (HBV [1]) is reported as under 10000 nM and the EC50 (HBV [2]) is reported as 1210 nM.
Work on `O=C(Nc1ccc(F)c(Cl)c1)c1cccc(SCCO)c1` [Compound 36, N-(3-Chloro-4-fluorophenyl)-3-((2-hydroxyethyl)thio)benzamide] yielded an EC50 (HBV [1]) of under 10000 nM and an EC50 (HBV [2]) of 1340 nM.
In the case of `O=C(Nc1ccc(F)c(Cl)c1)c1ccc(F)c(SC2CCC(O)CC2)c1` (mixture of isomers) [Compound 24, (cis/trans)-N-(3-Chloro-4-fluorophenyl)-4-fluoro-3-((4-hydroxycyclohexyl)thio)benzamide], the EC50 (HBV [1]) is reported as under 10000 nM and the EC50 (HBV [2]) is reported as 42 nM.
